Experimental data from patent US10781215B2, “Heterobicyclic compounds useful as modulators of IL-12, IL-23 and/or IFNα responses” (BRISTOL-MYERS SQUIBB COMPANY, priority 2016, dated 2020).
pEC50, pIC50: −log10 of the molar value.

Key:
[1] = test system: IFNα stimulated Kit225 T cells (STAT-dependent luciferase reporter); test: Kit225 T cell assay, IFNα stimulated STAT-dependent luciferase reporter; format: cell-based; details: 200 U/mL human recombinant IFNα, 5-6 hours
Protocol: (§1) Kit225 T cells with a stably-integrated STAT-dependent luciferase reporter were plated in RPMI (Gibco) containing 10% heat-inactivated FBS (Gibco) and 100 U/mL PenStrep (Gibco). The cells were then stimulated with either 20 ng/mL human recombinant IL-23 or 200 U/mL human recombinant IFNα (PBL InterferonSource) for 5-6 hours. Luciferase expression was measured using the STEADY-GLO® Luciferase Assay System (Promega) according to the manufacturer's instructions. Inhibition data were calculated by comparison to no inhibitor control wells for 0% inhibition and non-stimulated control wells for 100% inhibition. Dose response curves were generated to determine the concentration required to inhibit 50% of cellular response (IC50) as derived by non-linear regression analysis.

[2] = target: T1, human Tyk2 (amino acids 575-869, His-tagged) (Homo sapiens, UniProt P29597); test: Probe displacement assay (SPA format); format: binding; details: radiolabeled probe 40 nM, Tyk2 2.5 nM
T1 construct: made in house
T1 sequence (P29597 with tags, fused parts or gaps): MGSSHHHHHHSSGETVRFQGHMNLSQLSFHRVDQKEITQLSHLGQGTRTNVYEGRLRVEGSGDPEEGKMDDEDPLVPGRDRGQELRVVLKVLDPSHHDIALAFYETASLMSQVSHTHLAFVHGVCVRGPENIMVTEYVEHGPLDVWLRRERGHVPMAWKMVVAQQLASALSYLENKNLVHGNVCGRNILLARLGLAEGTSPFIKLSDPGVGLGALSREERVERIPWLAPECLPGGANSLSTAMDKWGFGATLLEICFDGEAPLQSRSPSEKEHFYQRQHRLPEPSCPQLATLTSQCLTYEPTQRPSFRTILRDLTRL
Protocol: Probe Displacement Assay (SPA Format) The probe displacement assay is conducted as follows: In a […], test compounds along with recombinantly expressed His-tagged protein corresponding to amino acids 575-869 of human Tyk2 (sequence shown below) at 2.5 nM, 40 nM ((R)—N-(1-(3-(8-methyl-5-(methylamino)-8H-imidazo [4,5-d]thiazolo [5,4-b]pyridin-2-yl)phenyl)ethyl)-2-([^3H]methylsulfonyl)benzamide) (preparation described below) and 80 μg/mL Copper His-Tag scintillation proximity assay beads (Perkin Elmer, Catalog # RPNQ0095) in 50 mM HEPES, pH 7.5, containing 100 μg/mL bovine serum albumin and 5% DMSO were incubated for 30 minutes at room temperature. The amount of radiolabeled probe (preparation described below) bound to Tyk2 was then quantified by scintillation counting, and the inhibition by the test compound calculated by comparison to wells either with no inhibitor (0% inhibition) or without Tyk2 (100% inhibition). The EC50 value is defined as the concentration of test compound required to inhibit radiolabeled probe binding by 50%. Probe Displacement Assay (HTRF Format)

[3] = test system: IL-23 stimulated Kit225 T cells (STAT-dependent luciferase reporter); test: Kit225 T cell assay, IL-23 stimulated STAT-dependent luciferase reporter; format: cell-based; details: 20 ng/mL human recombinant IL-23, 5-6 hours
Protocol: as §1

[4] = target: T2, recombinant human His-tagged Tyk2 pseudokinase domain (His-TVMV-Tyk2, 575-869) (Homo sapiens, UniProt P29597); test: Probe displacement assay (HTRF format); format: binding; details: fluorescein labeled probe, Tyk2 pseudokinase domain 0.5 nM
T2 construct: made in house
T2 sequence (P29597 with tags, fused parts or gaps): as above
Protocol: To 10 μL 26 nM fluorescein labeled probe plus 0.2 nM anti-6×His-terbium labeled antibody (Medarex, labeled by Cisbio) in assay buffer (20 mM Hepes pH 7.5, 150 mM NaCl, 10 mM MgCl2, 2 mM DTT, 50 μg/mL BSA, and 0.015% Brij 35) was added 10 μL recombinant human His-tagged Tyk2 pseudokinase domain (His-TVMV-Tyk2, 575-869) to a final concentration of 0.5 nM. After 1 h at room temperature, the HTRF signal (ratio of fluorescence intensities at emission wavelengths for fluorescein acceptor at 520 nm and terbium donor at 495 nm) was measured on an Envision Plate Reader. Percent inhibition was calculated by comparison to a control without inhibitor and a control without protein. Dose response curves were generated to determine the concentration required for inhibiting 50% of the HTRF signal (EC50).

Row | SMILES | pIC50 [1] | pEC50 [2] | pIC50 [3] | pEC50 [4]
1 | Cc1nc2c(Nc3ccccc3S(C)(=O)=O)cc(Nc3ccc(N4CCCC4=O)cn3)nc2[nH]1 [Example 24, 1-[6-({7-[(2-methanesulfonylphenyl)amino]-2-methyl-3H-imidazo[4,5-b]pyridin-5-yl}amino)pyridin-3-yl]pyrrolidin-2-one] | 6.20 | 7.82 | 5.91 | –
2 | Cc1nc2c(Nc3ccccc3S(C)(=O)=O)cc(Nc3ccc(C#N)c(C)n3)nc2[nH]1 [Example 25, 6-({7-[(2-methanesulfonylphenyl)amino]-2-methyl-3H-imidazo[4,5-b]pyridin-5-yl}amino)-2-methylpyridine-3-carbonitrile] | 6.90 | 8.15 | 6.69 | –
3 | Cc1nc2c(Nc3ccccc3S(C)(=O)=O)cc(Nc3cc(C)n(C)n3)nc2[nH]1 [Example 26, 5-N-(1,5-dimethyl-1H-pyrazol-3-yl)-7-N-(2-methanesulfonylphenyl)-2-methyl-3H-imidazo[4,5-b]pyridine-5,7-diamine] | 6.92 | 7.82 | 6.85 | –
4 | Cc1nc2c(Nc3ccccc3S(C)(=O)=O)cc(Nc3ccn4nccc4n3)nc2[nH]1 [Example 27, 7-N-(2-methanesulfonylphenyl)-2-methyl-5-N-{pyrazolo[1,5-a]pyrimidin-5-yl}-3H-imidazo[4,5-b]pyridine-5,7-diamine] | 6.91 | 8.40 | 6.49 | –
5 | Cc1nc2c(Nc3ccccc3S(C)(=O)=O)cc(Nc3cc(C)c(C#N)c(C)n3)nc2[nH]1 [Example 28, 6-({7-[(2-methanesulfonylphenyl)amino]-2-methyl-3H-imidazo[4,5-b]pyridin-5-yl}amino)-2,4-dimethylpyridine-3-carbonitrile] | 7.28 | 8.05 | 7.15 | –
6 | Cc1cccc(Nc2cc(Nc3ccccc3S(C)(=O)=O)c3nc(C)[nH]c3n2)n1 [Example 29, 7-N-(2-methanesulfonylphenyl)-2-methyl-5-N-(6-methylpyridin-2-yl)-3H-imidazo[4,5-b]pyridine-5,7-diamine] | 7.46 | 8.22 | 7.68 | –
7 | Cc1nc2c(Nc3ccccc3S(C)(=O)=O)cc(Nc3ccn(C(C)C)n3)nc2[nH]1 [Example 30, 7-N-(2-methanesulfonylphenyl)-2-methyl-5-N-[1-(propan-2-yl)-1H-pyrazol-3-yl]-3H-imidazo[4,5-b]pyridine-5,7-diamine] | 6.30 | 7.24 | 6.24 | –
8 | Cc1nc2c(Nc3ccccc3S(C)(=O)=O)cc(Nc3cc(C)c(F)cn3)nc2[nH]1 [Example 31, 5-N-(5-fluoro-4-methylpyridin-2-yl)-7-N-(2-methanesulfonylphenyl)-2-methyl-3H-imidazo[4,5-b]pyridine-5,7-diamine] | 6.98 | 7.92 | 6.63 | –
9 | Cc1nc2c(Nc3ccccc3C(N)=O)cc(Nc3ccc(F)cn3)nc2[nH]1 [Example 32, 2-({5-[(5-fluoropyridin-2-yl)amino]-2-methyl-3H-imidazo[4,5-b]pyridin-7-yl}amino)benzamide] | 5.94 | 6.78 | 5.48 | –
10 | COc1ccccc1Nc1cc(NC(=O)C2CC2)nc2[nH]c(C)nc12 [Example 35, N-{7-[(2-methoxyphenyl)amino]-2-methyl-3H-imidazo[4,5-b]pyridin-5-yl}cyclopropanecarboxamide] | 5.29 | 6.09 | 5.50 | –
11 | COc1ccccc1Nc1cc(Nc2cc(C)nc(C)n2)nc2[nH]c(C)nc12 [Example 36, 5-N-(2,6-dimethylpyrimidin-4-yl)-7-N-(2-methoxyphenyl)-2-methyl-3H-imidazo[4,5-b]pyridine-5,7-diamine] | 5.82 | 6.54 | 6.08 | –
12 | COc1ccccc1Nc1cc(Nc2ccc(N3CCOCC3)cn2)nc2[nH]c(C)nc12 [Example 37, 7-N-(2-methoxyphenyl)-2-methyl-5-N-[5-(morpholin-4-yl)pyridin-2-yl]-3H-imidazo[4,5-b]pyridine-5,7-diamine] | 5.99 | 6.36 | 5.41 | –
13 | COc1ccccc1Nc1cc(Nc2ccc(F)cn2)nc2[nH]c(C)nc12 [Example 38, 5-N-(5-fluoropyridin-2-yl)-7-N-(2-methoxyphenyl)-2-methyl-3H-imidazo[4,5-b]pyridine-5,7-diamine] | 5.29 | 6.29 | 5.09 | –
14 | COc1c(Nc2cc(NC(=O)C3CC3)nc3[nH]c(C)nc23)cccc1-c1ncn(C)n1 [Example 39, N-(7-{[2-methoxy-3-(1-methyl-1H-1,2,4-triazol-3-yl)phenyl]amino}-2-methyl-3H-imidazo[4,5-b]pyridin-5-yl)cyclopropanecarboxamide] | 5.57 | 7.77 | 5.52 | –
15 | COc1c(Nc2cc(Nc3ccc(F)cn3)nc3[nH]c(C)nc23)cccc1-c1ncn(C)n1 [Example 40, 5-N-(5-fluoropyridin-2-yl)-7-N-[2-methoxy-3-(1-methyl-1H-1,2,4-triazol-3-yl)phenyl]-2-methyl-3H-imidazo[4,5-b]pyridine-5,7-diamine] | 5.91 | 7.42 | 6.13 | –
16 | Cc1nc2c(Nc3ncccc3S(C)(=O)=O)cc(Nc3ccc(F)cn3)nc2[nH]1 [Example 41, 5-N-(5-fluoropyridin-2-yl)-7-N-(3-methanesulfonylpyridin-2-yl)-2-methyl-3H-imidazo[4,5-b]pyridine-5,7-diamine] | 7.17 | – | 7.55 | 9.40
17 | COc1ccc(Nc2cc(Nc3ncccc3S(C)(=O)=O)c3nc(C)[nH]c3n2)nc1 [Example 42, 7-N-(3-methanesulfonylpyridin-2-yl)-5-N-(5-methoxypyridin-2-yl)-2-methyl-3H-imidazo[4,5-b]pyridine-5,7-diamine] | 7.17 | – | 7.12 | 9.22
18 | Cc1nc2c(Nc3ncccc3S(C)(=O)=O)cc(Nc3cc(F)ccn3)nc2[nH]1 [Example 43, 5-N-(4-fluoropyridin-2-yl)-7-N-(3-methanesulfonylpyridin-2-yl)-2-methyl-3H-imidazo[4,5-b]pyridine-5,7-diamine] | 7.35 | – | 7.28 | 9.10
19 | COc1ccc(Nc2cc(Nc3ncccc3S(C)(=O)=O)c3nc(C)[nH]c3n2)nn1 [Example 45, 7-N-(3-methanesulfonylpyridin-2-yl)-5-N-(6-methoxypyridazin-3-yl)-2-methyl-3H-imidazo[4,5-b]pyridine-5,7-diamine] | 6.54 | – | 6.34 | 8.92
20 | CCc1nc2c(Nc3ccccc3S(C)(=O)=O)cc(Nc3ccc(F)cn3)nc2[nH]1 [Example 51, 2-ethyl-5-N-(5-fluoropyridin-2-yl)-7-N-(2-methanesulfonylphenyl)-3H-imidazo[4,5-b]pyridine-5,7-diamine] | 5.85 | 6.80 | 5.83 | –
21 | CCc1nc2c(Nc3ccccc3S(C)(=O)=O)cc(Nc3cc(C)nc(C)n3)nc2[nH]1 [Example 52, 5-N-(2,6-dimethylpyrimidin-4-yl)-2-ethyl-7-N-(2-methanesulfonylphenyl)-3H-imidazo[4,5-b]pyridine-5,7-diamine] | 5.37 | 6.97 | 5.85 | –
